Data on seven compounds can be found in patent publication US7208517B1, “Endothelin antagonists” (Abbott Labortories, priority 1994, dated 2007).

pIC50: −log10 of the molar value. Some results are limits rather than exact numbers.

The target of the first assay is T1, human ETA receptor (Homo sapiens, UniProt P25101).
T1 construct: expressed in transfected cells; host or cells: CHO cells, permanently transfected
T1 sequence (P25101 21-427): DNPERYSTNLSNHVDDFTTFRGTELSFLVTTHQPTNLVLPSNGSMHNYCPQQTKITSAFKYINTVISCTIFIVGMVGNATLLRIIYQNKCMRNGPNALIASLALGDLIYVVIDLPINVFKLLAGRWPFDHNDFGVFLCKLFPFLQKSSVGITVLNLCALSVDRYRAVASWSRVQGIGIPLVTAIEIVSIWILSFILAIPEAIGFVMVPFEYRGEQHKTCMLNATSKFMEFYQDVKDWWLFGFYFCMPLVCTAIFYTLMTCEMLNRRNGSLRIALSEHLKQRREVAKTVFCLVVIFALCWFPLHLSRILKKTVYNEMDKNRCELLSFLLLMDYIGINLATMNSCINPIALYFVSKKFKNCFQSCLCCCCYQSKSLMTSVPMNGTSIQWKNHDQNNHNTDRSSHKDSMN
As to the kind of experiment: ETA/ETB selectivity: (125I)ET-1 competition binding, CHO cells transfected with human ETA receptor (hET-A).
Details: not given
Here is the method: (§1) The mixture was centrifuged at 1000×g for 10 min. The supernatant was collected and centrifuged at 60,000×g for 60 min. The precipitate was resuspended in 20 mM Tris, pH 7.4 containing protease inhibitor and centrifuged again. The final membrane pellet was resuspended in 20 mM Tris, pH 7.4 containing protease inhibitors and stored at −80° C. until used. Protein content was determined by the Bio-Rad dye-binding protein assay.
(§2) Binding assays were performed in 96-well microtiter plates pretreated with 0.1% BSA. […] After incubation, unbound ligands were separated from bound ligands by a vacuum filtration method using glass-fiber filter strips in PHD cell harvesters (Cambridge Technology, Inc., MA), washing the filter strips three times with saline (1 mL). Nonspecific binding was determined in the presence of 1 μM ET-1. IC50 values are calculated using an average of at least two separate determinations.
In the case of `CC=CC(C)(C)CC1C(C(=O)O)C(c2ccc3c(c2)OCO3)CN1CC(=O)N(CCCC)CCCC` (stereo not shown) [compound 552], the pIC50 (as a rule, −log10 of the IC50, conventionally taken in molar units) was 9.00.

Still in this assay, the particulars now being: CHO cells transfected with human ETA receptor; 0.1 nM (125I)ET-1; read-out: hET-A IC50.
In the case of `CCCC(CCC)N(C(=O)CN1C[C@H](c2ccc3c(c2)OCO3)[C@@H](C(=O)O)[C@@H]1CC(C)(C)CCC)c1ccc(F)c(C)c1` [compound 511], the pIC50 is 9.22.

Turning to `CCCCN(CCCC)C(=O)CN1CC(c2ccc3c(c2)OCO3)C(C(=O)O)C1CCN1CCCC1=O` (stereo not shown) [compound 512], the pIC50 is 9.24.

On to `CCCCN(CCCC)C(=O)CN1CC(c2ccc3c(c2)OCO3)C(C(=O)O)C1CCc1ccccn1` (stereo not shown) [compound 519], for which the pIC50 was 9.64.

Consider `CCCCN(CCCN)C(=O)CN1CC(c2ccc3c(c2)OCO3)C(C(=O)O)C1c1ccc(OC)cc1` (stereo not shown) [compound 526], for which the pIC50 was 7.77.

In another assay the target is T2, human ETB receptor (Homo sapiens, UniProt P24530).
T2 construct: expressed in transfected cells; host or cells: CHO cells, permanently transfected
T2 sequence (P24530 27-442): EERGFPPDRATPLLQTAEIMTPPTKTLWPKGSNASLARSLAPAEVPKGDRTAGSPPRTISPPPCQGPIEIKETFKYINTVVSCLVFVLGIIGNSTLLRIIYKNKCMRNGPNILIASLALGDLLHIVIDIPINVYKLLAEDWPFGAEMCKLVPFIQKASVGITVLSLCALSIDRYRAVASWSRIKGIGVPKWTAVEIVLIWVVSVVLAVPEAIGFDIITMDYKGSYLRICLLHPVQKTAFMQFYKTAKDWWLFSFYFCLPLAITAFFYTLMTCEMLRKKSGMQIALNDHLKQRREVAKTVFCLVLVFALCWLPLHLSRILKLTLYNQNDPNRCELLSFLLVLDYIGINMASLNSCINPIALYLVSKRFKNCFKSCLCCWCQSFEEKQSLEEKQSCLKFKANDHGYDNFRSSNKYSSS
The assay can be described thus: ETA/ETB selectivity: (125I)ET-3 competition binding, CHO cells transfected with human ETB receptor (hET-B). As to conditions: CHO cells transfected with human ETB receptor; 0.1 nM (125I)ET-3; read-out: hET-B IC50. Here is the method: MMQ cells, porcine cerebellar tissues (known to contain ETB receptors) and chinese hamster ovary cells (CHO) permanently transfected with the human ETA or ETB receptor were homogenized in 25 ml of 10 mM Hepes (pH 7.4) containing 0.25 M sucrose and a protease inhibitor [50 mM EDTA, 0.1 mM PMSF, 5 μg/ml Pepstatin A, and 0.025% Bacitracin] using a micro ultrasonic cell disrupter. The mixture was centrifuged at 1000×g for 10 min. The supernatant was collected and centrifuged at 60,000×g for 60 min. The precipitate was resuspended in 20 mM Tris, pH 7.4 containing protease inhibitor and centrifuged again. The final membrane pellet was resuspended in 20 mM Tris, pH 7.4 containing protease inhibitors and stored at −80° C. until used. Protein content was determined by the Bio-Rad dye-binding protein assay.
Binding assays were performed in 96-well microtiter plates pretreated with 0.1% BSA. Membranes prepared from cells were diluted 100 fold in Buffer B (20 mM Tris, 100 mM NaCl, 10 mM MgCl2, pH 7.4, with 0.2% BSA, 0.1 mM PMSF, 5 μg/mL Pepstatin A, 0.025% bacitracin, and 50 mM EDTA) to a final concentration of 0.2 mg/mL of protein. In competition binding studies, membranes (0.02 mg) were incubated with 0.1 nM of (^125I)ET-1 (for ETA assay in MMQ or CHO cells transfected with human ETA receptor) or (^125I)ET-3 (for ETB assay in porcine cerebellum or CHO cells transfected with human ETB receptor) in Buffer B (final volume: 0.2 mL) in the presence of increasing concentrations of the test compound for 3 hours at 25° C. After incubation, unbound ligands were separated from bound ligands by a vacuum filtration method using glass-fiber filter strips in PHD cell harvesters (Cambridge Technology, Inc., MA), washing the filter strips three times with saline (1 mL). Nonspecific binding was determined in the presence of 1 μM ET-1. IC50 values are calculated using an average of at least two separate determinations.
For the compound `CCCC(CCC)N(C(=O)CN1C[C@H](c2ccc3c(c2)OCO3)[C@@H](C(=O)O)[C@@H]1CC(C)(C)CCC)c1ccc(F)c(C)c1` [compound 511], the pIC50 was 4.82.

As for `CCCCN(CCCC)C(=O)CN1CC(c2ccc3c(c2)OCO3)C(C(=O)O)C1CCN1CCCC1=O` (stereo not shown) [compound 512], the pIC50 was at most 4.22.

For the compound `CCCCN(CCCC)C(=O)CN1CC(c2ccc3c(c2)OCO3)C(C(=O)O)C1CCc1ccccn1` (stereo not shown) [compound 519], the pIC50 is 4.72.

`CCCCN(CCCN)C(=O)CN1CC(c2ccc3c(c2)OCO3)C(C(=O)O)C1c1ccc(OC)cc1` (stereo not shown) [compound 526]: the pIC50 is 5.13.

Turning to `CC=CC(C)(C)CC1C(C(=O)O)C(c2ccc3c(c2)OCO3)CN1CC(=O)N(CCCC)CCCC` (stereo not shown) [compound 552], the pIC50 is below 4.02.

Another assay has as its target T3, ETA Receptor (Rattus norvegicus, UniProt P26684).
T3 construct: endogenous in cells; host or cells: MMQ rat pituitary cells (membranes)
T3 sequence (P26684 21-426): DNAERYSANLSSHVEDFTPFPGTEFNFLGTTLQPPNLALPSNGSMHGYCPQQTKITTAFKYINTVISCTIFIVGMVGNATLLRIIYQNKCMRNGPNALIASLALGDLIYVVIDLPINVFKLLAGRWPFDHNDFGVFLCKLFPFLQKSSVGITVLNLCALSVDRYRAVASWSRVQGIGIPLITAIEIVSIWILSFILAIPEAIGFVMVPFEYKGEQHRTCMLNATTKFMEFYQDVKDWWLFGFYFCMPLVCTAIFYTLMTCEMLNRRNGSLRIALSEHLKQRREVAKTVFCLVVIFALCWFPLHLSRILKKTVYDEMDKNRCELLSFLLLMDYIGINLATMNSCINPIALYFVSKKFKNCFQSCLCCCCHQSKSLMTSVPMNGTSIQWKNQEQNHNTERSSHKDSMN
The assay can be described thus: [125I]ET-1 binding to membranes from MMQ cells (ETA receptor binding assay, Table 4). The following applies: read-out: % Inhibition of ETA at 1 μM.
Take `CCCCN(CCCC)C(=O)CN1CC(c2ccc3c(c2)OCO3)C(C(=O)O)C1CC(C)CCC` (stereo not shown) [compound 502]: the inhibition – broadly, the percentage by which the read-out fell short of the control – at 1 µM was 95.7%.

In the case of `CCCCN(CCCC)C(=O)CN1CC(c2ccc3c(c2)OCO3)C(C(=O)O)C1CCc1ccccn1` (stereo not shown) [compound 519], the inhibition at 1 µM was found to be 99.1%.

The assay is the same for the next values; noted with them: test compound at 1 μM; 0.1 nM [125I]ET-1, MMQ cell membranes, 4 hours at 25° C.
In the case of “(2R,3R,4S)-(+)-2-(4-Methoxyphenyl)-4-(1,3-benzodioxol-5-yl)-1-(tert-butyloxycarbonyl-aminocarbonylmethyl)-pyrrolidine-3-carboxylic acid [Example 95D]”, the “% Inhibition of ETA at 1 μM” value came to 82.1%.

The same assay, now with this note: test compound at 1 μM; 0.1 nM [125I]ET-1, MMQ cell membranes, 4 hours at 25° C.; read-out: % Inhibition of ETA at 1 μM.
For the compound `CCCC(CCC)N(C(=O)CN1C[C@H](c2ccc3c(c2)OCO3)[C@@H](C(=O)O)[C@@H]1CC(C)(C)CCC)c1ccc(F)c(C)c1` [compound 511], the inhibition at 1 µM was determined as 99.2%.

For the compound `CCCCN(CCCC)C(=O)CN1CC(c2ccc3c(c2)OCO3)C(C(=O)O)C1CCN1CCCC1=O` (stereo not shown) [compound 512], the inhibition at 1 µM came out at 98.9%.

Take `CCCCN(CCCN)C(=O)CN1CC(c2ccc3c(c2)OCO3)C(C(=O)O)C1c1ccc(OC)cc1` (stereo not shown) [compound 526]: the inhibition at 1 µM came to 100%.

In a further assay the target is T4, ETA receptor in MMQ cells (rET-A) (Rattus norvegicus, UniProt P26684).
T4 construct: endogenous in cells; host or cells: MMQ rat pituitary cells (membranes)
T4 sequence (P26684 21-426): T3 sequence (P26684 21-426)
The assay can be described thus: ETA/ETB selectivity: (125I)ET-1 competition binding, ETA assay in MMQ cell membranes (rET-A).
Details: not given
As for the experimental part: as §1, §2
In the case of `CCCCN(CCCC)C(=O)CN1CC(c2ccc3c(c2)OCO3)C(C(=O)O)C1CC(C)CCC` (stereo not shown) [compound 502], the pIC50 is 8.52.

Consider `CCCCN(CCCC)C(=O)CN1CC(c2ccc3c(c2)OCO3)C(C(=O)O)C1CCN1CCCC1=O` (stereo not shown) [compound 512], for which the pIC50 is 9.38.

For the compound `CCCCN(CCCC)C(=O)CN1CC(c2ccc3c(c2)OCO3)C(C(=O)O)C1CCc1ccccn1` (stereo not shown) [compound 519], the pIC50 was 9.42.

The assay is the same for the next values; noted with them: 1 μM test compound; MMQ cell membranes.
In turn, `CC=CC(C)(C)CC1C(C(=O)O)C(c2ccc3c(c2)OCO3)CN1CC(=O)N(CCCC)CCCC` (stereo not shown) [compound 552] registered an inhibition at 1 µM of 97.3%.

Still in this assay, the particulars now being: MMQ cell membranes; 0.1 nM (125I)ET-1; read-out: rET-A IC50.
Turning to `CCCC(CCC)N(C(=O)CN1C[C@H](c2ccc3c(c2)OCO3)[C@@H](C(=O)O)[C@@H]1CC(C)(C)CCC)c1ccc(F)c(C)c1` [compound 511], the pIC50 is 9.09.

Regarding `CCCCN(CCCN)C(=O)CN1CC(c2ccc3c(c2)OCO3)C(C(=O)O)C1c1ccc(OC)cc1` (stereo not shown) [compound 526], the pIC50 was 7.38.

In the next assay the target is T5, ETB receptors of porcine cerebellar tissues (pET-B) (Sus scrofa, UniProt P35463).
T5 construct: porcine cerebellar tissues (known to contain ETB receptors); from tissue; host or cells: porcine cerebellum (membranes)
T5 sequence (P35463 27-443): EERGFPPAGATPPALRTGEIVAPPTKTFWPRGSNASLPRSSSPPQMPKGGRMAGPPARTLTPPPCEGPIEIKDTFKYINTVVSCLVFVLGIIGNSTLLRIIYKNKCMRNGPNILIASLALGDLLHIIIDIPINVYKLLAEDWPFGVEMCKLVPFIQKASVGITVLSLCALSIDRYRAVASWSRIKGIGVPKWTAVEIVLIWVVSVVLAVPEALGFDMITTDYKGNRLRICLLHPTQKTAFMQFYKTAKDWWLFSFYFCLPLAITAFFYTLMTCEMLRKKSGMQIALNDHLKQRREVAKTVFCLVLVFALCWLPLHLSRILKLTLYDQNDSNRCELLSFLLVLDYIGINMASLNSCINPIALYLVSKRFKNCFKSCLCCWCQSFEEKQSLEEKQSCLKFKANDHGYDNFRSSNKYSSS
The assay can be described thus: ETA/ETB selectivity: (125I)ET-3 competition binding, ETB assay in porcine cerebellum membranes (pET-B).
Details: not given
As for the experimental part:
as §1, §2
`CCCCN(CCCC)C(=O)CN1CC(c2ccc3c(c2)OCO3)C(C(=O)O)C1CC(C)CCC` (stereo not shown) [compound 502] showed a pIC50 of 4.15.

`CCCCN(CCCC)C(=O)CN1CC(c2ccc3c(c2)OCO3)C(C(=O)O)C1CCc1ccccn1` (stereo not shown) [compound 519] gave a pIC50 of 4.85.

The assay is the same for the next values; noted with them: porcine cerebellum membranes; 0.1 nM (125I)ET-3; read-out: pET-B IC50.
On to `CCCCN(CCCC)C(=O)CN1CC(c2ccc3c(c2)OCO3)C(C(=O)O)C1CCN1CCCC1=O` (stereo not shown) [compound 512], for which the pIC50 was below 4.10.
